Results on 17 compounds are retold here after patent US7579356B2, “Thia-tetraazaacenaphthylene kinase inhibitors” (Janssen Pharmaceutica NV, priority 2005, dated 2009).

The target in one test is T1, EGFR (Homo sapiens, UniProt P00533).
T1 construct: The intracellular portion of EGFR started at nucleotide 2189 (corresponding to amino acid 667) and ended at the termination codon; made in house; host or cells: Sf9 insect cells (baculovirus)
Briefly: EGFR Kinase Assay. The class given is biochemical. The note with it: for IC50: GST-EGFR, ATP 5 μM. The source says: The EGFR kinase used was a fusion of Glutathione-S-Transferase (GST) and a PCR amplified intracellular portion of EGFR (Accession Number NM_005228). The intracellular portion of EGFR started at nucleotide 2189 (corresponding to amino acid 667) and ended at the termination codon. The portion was PCR amplified with primers that added the lambda attB sequences to each end, recombined into an entry vector, then into a GST destination vector (as described in Gateway Technologies Manual by Invitrogen Corporation, Carlsbad, Calif.).
The destination vector was recombined in the DH10BAC strain of bacteria to produce a bacmid. The bacmid was transfected into Sf 9 cells and the supernatant containing the baculovirus was collected. The GSTEGFR protein was purified using large cultures of Sf 9 cells infected with stock virus. After an appropriate period of time, the cells were collected and lysed. The GSTEGFR was then purified from the lysate on Glutathione-Sepharose columns (as described by Amersham Biosciences, Buckinghamshire, United Kingdom).
The EGFR substrate was prepared by biotinylating polyGluTyr (128 mg) (Sigma, St. Louis, Mo.) in a 1×PBS buffer incubated together with a 12-fold molar excess of Sulfo-NHS-LC-Biotin on ice for at least 2 hrs. The free biotin was separated from the biotinylated polyGluTyr on a gel filtration column.
A mixture of a 10× kinase buffer (500 mM Tris at pH 8.0, 100 mM Magnesium Chloride and 1 mM Sodium Vanadate), DTT (1 mM final from 500 mM stock), ATP (5 μM final from 10 mM stock), biotinylated polyGluTyr (10 μg/μL stock), γ-^33P ATP (10 μCl/μL stock) and water was added to each well (for a total of 90 μL/well) of a Streptavidin Flashplate (Perkin Elmer, Wellesley, Mass.).
Test compound in 100% DMSO (2 μL) was added to the appropriate wells. Diluted GSTEGFR (1:300 dilution in 50 mM Tris at pH 8.0 and 0.1% bovine serum albumin) (10 μL) was added to the wells to initiate the reactions.
The plates were incubated at 30° C. for 1 hr with shaking. The reacted contents were removed and the plates were sequentially washed three times with a 1×PBS stop buffer (300 μL without Magnesium and Calcium) and 100 mM EDTA. After the final wash, the same stop buffer (200 μL) was added to the wells. The plates were then sealed and read on the TopCount scintillation counter.
Test compounds were assayed in triplicate at 16 concentrations at half-log dilutions starting at 200 uM. A maximum and minimum signal for the assay was determined on each plate. The percent inhibition of a test compound was calculated according to the formula: […]
For a series of test concentrations, the IC50 was derived by graphing percent inhibition against the log of the concentrations tested for a given compound. For those compounds without an IC50, the inhibition values in percent are shown at a test concentration of 2 μM. For compounds with multiple values, each value represents a separate assay result.

The next test has as its target T2, HER-2 (Homo sapiens, UniProt P04626).
T2 construct: His6 with thrombin site (N); purchased Proqinase (Freiburg, Germany)
Briefly: HER-2 Kinase Assay. The test is classed as biochemical. The note with it: for IC50: value in parentheses; for inhibition at 1 µM: test concentration of 1 μM. Here is the method: The HER-2 kinase used was purified at Proqinase (Freiburg, Germany) from a construct that consisted of a fusion of GST (Glutathione-S-Transferase), HIS6-Thrombin and the nucleotides encoding amino acids 679 to 1255 of HER-2 (Accession Number M11730).
A mixture of a 10× kinase reaction buffer (600 mM Hepes at pH 7.5, 30 mM Magnesium Chloride, 0.03 mM Sodium Vanadate and 500 μg/mL PEG 20,000), DTT (1.2 mM final from a 10 mM stock), APT (1 μM from a 10 mM stock), biotinylated polyGluTyr (1.5 ng/μL final from stock of 1 μg/μL) prepared by Upstate Biotechnologies, Lake Placid, N.Y.), Manganese Chloride (3 mM final from a 1 M stock), γ-^33P-ATP (10 μCl/μL stock) and water (70 μL/well) was added to each well of a Streptavidin Flashplate (Cat. # SMP103, NEN, Boston, Mass.).
Test compound stock (1 μL) was added to the appropriate wells. Diluted GSTHER2 kinase (6.7 ng/μL diluted into 50 mM Tris-HCl at pH 8.0 and 0.1% bovine serum albumin) (30 μL) was added (total volume of 200 ng/well) to initiate the reactions.
The reaction plates were incubated at 30° C. for 1 hr. The reaction was terminated by aspirating the reaction mixture from the plate wells and washing the wells three times with a 1×PBS stop buffer (300 μL) and 100 mM EDTA. After the final wash, the same stop buffer (200 μL) was again added to the wells. The plates were then sealed and read on the TopCount scintillation counter.
The Her-2 inhibition values were derived according to the procedure described in Example 164 and are shown as percent in Table 4 at a test concentration of 1 μM. For those compounds with an IC50, the IC50 value in μM is shown in parentheses. For compounds with multiple test values, each value represents a separate assay result.

The IC50 is the concentration that inhibits the measured activity by half. Usually inhibition stands for the relative decrease from the control value, in per cent.

For “4-oxo-5-(4-phenoxy-phenyl)-4,5-dihydro-3H-1-thia-3,5,6,8-tetraaza-acenaphthylene-2-carboxylic acid (4-morpholin-4-ylmethyl-3-trifluoromethoxy-phenyl)-amide [Cpd 240]”, the IC50 against EGFR was found to be 31 nM; at HER-2, 227 nM.

On EGFR, `O=C(Nc1ccc(CN2CCCC2)cc1)c1sc2ncnc3c2c1NC(=O)N3c1ccc(F)c(Cl)c1` [Cpd 7, 5-(3-chloro-4-fluoro-phenyl)-4-oxo-4,5-dihydro-3H-1-thia-3,5,6,8-tetraaza-acenaphthylene-2-carboxylic acid (4-pyrrolidin-1-ylmethyl-phenyl)-amide] came in with an IC50 of 7 nM. The inhibition at 1 µM against HER-2 is 69%.

As to `O=C(Nc1ccc(CN2CCOCC2)cc1)c1sc2ncnc3c2c1NC(=O)N3c1ccc(F)c(Cl)c1` [Cpd 13, 5-(3-chloro-4-fluoro-phenyl)-4-oxo-4,5-dihydro-3H-1-thia-3,5,6,8-tetraaza-acenaphthylene-2-carboxylic acid (4-morpholin-1-ylmethyl-phenyl)-amide], the IC50 on EGFR was found to be 41 nM. Also, on HER-2, the inhibition at 1 µM was 40% and the IC50 stood at 804 nM.

In the case of `CN1CCN(Cc2ccc(NC(=O)c3sc4ncnc5c4c3NC(=O)N5c3ccc(F)c(Cl)c3)cc2)CC1` [Cpd 14, 5-(3-chloro-4-fluoro-phenyl)-4-oxo-4,5-dihydro-3H-1-thia-3,5,6,8-tetraaza-acenaphthylene-2-carboxylic acid [4-(4-methyl-piperazin-1-ylmethyl)-phenyl]-amide], the IC50 on EGFR stood at 43 nM. Also, the inhibition at 1 µM on HER-2 is -1%.

For the compound `C#Cc1cccc(N2C(=O)Nc3c(C(=O)Nc4ccc(CN5CCCC5)cc4)sc4ncnc2c34)c1` [Cpd 15, 5-(3-ethynyl-phenyl)-4-oxo-4,5-dihydro-3H-1-thia-3,5,6,8-tetraaza-acenaphthylene-2-carboxylic acid (4-pyrrolidin-1-ylmethyl-phenyl)-amide], on EGFR, 26 nM corresponded to half-maximal inhibition (IC50). Further, at HER-2, the inhibition at 1 µM was found to be 21%.

In turn, `C#Cc1cccc(N2C(=O)Nc3c(C(=O)Nc4ccc(CNC5CCNCC5)cc4)sc4ncnc2c34)c1` [Cpd 24, 5-(3-ethynyl-phenyl)-4-oxo-4,5-dihydro-3H-1-thia-3,5,6,8-tetraaza-acenaphthylene-2-carboxylic acid [4-(piperidin-4-ylaminomethyl)-phenyl]-amide] returned an IC50 at EGFR of 126 nM.

For `O=C(Nc1ccc(CN2CCCCC2)cc1)c1sc2ncnc3c2c1NC(=O)N3c1ccc(Cl)cc1Cl` [Cpd 25, 5-(2,4-dichloro-phenyl)-4-oxo-4,5-dihydro-3H-1-thia-3,5,6,8-tetraaza-acenaphthylene-2-carboxylic acid (4-piperidin-1-ylmethyl-phenyl)-amide], the results for the IC50 against EGFR and on HER-2 were 168 nM and 768 nM, respectively.

Take `COc1cc(N2C(=O)Nc3c(C(=O)Nc4ccc(CN5CCCCC5)cc4)sc4ncnc2c34)c(Cl)c(OC)c1OC` [Cpd 26, 5-(2-chloro-3,4,5-trimethoxy-phenyl)-4-oxo-4,5-dihydro-3H-1-thia-3,5,6,8-tetraaza-acenaphthylene-2-carboxylic acid (4-piperidin-1-ylmethyl-phenyl)-amide]: the IC50 against EGFR was 9260 nM.

At EGFR, `COc1cc(NC(=O)c2sc3ncnc4c3c2NC(=O)N4c2cc(OC)c(OC)c(OC)c2)ccc1OCCN1CCOCC1` [Cpd 27, 4-oxo-5-(3,4,5-trimethoxy-phenyl)-4,5-dihydro-3H-1-thia-3,5,6,8-tetraaza-acenaphthylene-2-carboxylic acid [3-methoxy-4-(2-morpholin-4-yl-ethoxy)-phenyl]-amide] yielded an IC50 of 41500 nM.

Consider `COc1cc(N2C(=O)Nc3c(C(=O)Nc4ccc(CN5CCCCC5)cc4)sc4ncnc2c34)cc(OC)c1OC` [Cpd 28, 5-(3,4,5-trimethoxy-phenyl)-4-oxo-4,5-dihydro-3H-1-thia-3,5,6,8-tetraaza-acenaphthylene-2-carboxylic acid (4-piperidin-1-ylmethyl-phenyl)-amide], for which, at EGFR (test concentration of 2 μM, compounds without an IC50, read-out: EGFR inhibition in percent), the inhibition at 2 µM was 15%.

In the case of `O=C(Nc1ccc(CN2CCOCC2)cc1)c1sc2ncnc3c2c1NC(=O)N3c1ccc(Cl)cc1Cl` [Cpd 29, 5-(2,4-dichloro-phenyl)-4-oxo-4,5-dihydro-3H-1-thia-3,5,6,8-tetraaza-acenaphthylene-2-carboxylic acid (4-morpholin-4-ylmethyl-phenyl)-amide], the IC50 at EGFR stood at 873 nM; on HER-2, 884 nM.

`COc1ccc(N2C(=O)Nc3c(C(=O)Nc4ccc(CN5CCCCC5)cc4)sc4ncnc2c34)c(F)c1` [Cpd 66, 5-(2-fluoro-4-methoxy-phenyl)-4-oxo-4,5-dihydro-3H-1-thia-3,5,6,8-tetraaza-acenaphthylene-2-carboxylic acid (4-piperidin-1-ylmethyl-phenyl)-amide]: at EGFR, the IC50 came to 524 nM. Besides, the inhibition at 1 µM against HER-2 was found to be 11%.

With `COc1ccc(N2C(=O)Nc3c(C(=O)Nc4ccc(OCC5CCCCO5)c(OC)c4)sc4ncnc2c34)c(F)c1` (stereo not drawn) [Cpd 68, 5-(2-fluoro-4-methoxy-phenyl)-4-oxo-4,5-dihydro-3H-1-thia-3,5,6,8-tetraaza-acenaphthylene-2-carboxylic acid [3-methoxy-4-(tetrahydro-pyran-2-ylmethoxy)-phenyl]-amide], on EGFR, 690 nM corresponded to half-maximal inhibition (IC50). In addition, the inhibition at 1 µM on HER-2 was -8%.

On EGFR, `O=C1Nc2c([N+](=O)[O-])sc3ncnc(c23)N1c1ccc(F)c(Cl)c1` [Cpd 156, 5-(3-chloro-4-fluoro-phenyl)-2-nitro-3H,5H-1-thia-3,5,6,8-tetraaza-acenaphthylen-4-one] came in with an IC50 of 1370 nM.

`Nc1sc2ncnc3c2c1NC(=O)N3c1ccc(F)c(Cl)c1` [Cpd 157, 2-amino-5-(3-chloro-4-fluoro-phenyl)-3H,5H-1-thia-3,5,6,8-tetraaza-acenaphthylen-4-one] yielded an IC50 on EGFR of 371 nM.

With `COc1ccc(CC(=O)Nc2sc3ncnc4c3c2NC(=O)N4c2ccc(F)c(Cl)c2)cc1OC` [Cpd 158, N-[5-(3-chloro-4-fluoro-phenyl)-4-oxo-4,5-dihydro-3H-1-thia-3,5,6,8-tetraaza-acenaphthylen-2-yl]-2-(3,4-dimethoxy-phenyl)-acetamide], the IC50 at EGFR was 2430 nM.

On to `COc1ccc(C(=O)Nc2sc3ncnc4c3c2NC(=O)N4c2ccc(F)c(Cl)c2)cc1OC` [Cpd 159, N-[5-(3-chloro-4-fluoro-phenyl)-4-oxo-4,5-dihydro-3H-1-thia-3,5,6,8-tetraaza-acenaphthylen-2-yl]-3,4-dimethoxy-benzamide], for which the midpoint of inhibition on EGFR, the IC50, lay at 1040 nM.
